The text below walks through data of PubChem BioAssay AID192 (DTP/NCI, 2004).

The experiment relates to BDF1 mice, B16 melanoma ip, median survival T/C. Kind of experiment: NCI In Vivo Anticancer Drug Screen. Data for tumor model B16 Melanoma (intraperitoneal) in B6D2F1 (BDF1) mice. The settings on record: endpoint: median survival time, higher = longer survival. In short, it runs like this: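 Vehicle-treated animals serve as the reference (C); treated animals (T) are scored for survival or tumor size after tumor transplantation.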

[1] abbreviates: dose: 100.0 mg/kg/injection, schedule: Q01DX009 (ip), vehicle: saline with Tween-80.
The mark [2] stands for this setting: dose: 200.0 mg/kg/injection, schedule: Q01DX009 (ip), vehicle: saline with Tween-80.
Where [3] appears, read: dose: 12.5 mg/kg/injection, schedule: Q01DX009 (ip), vehicle: saline with Tween-80.
Where [4] appears, read: dose: 25.0 mg/kg/injection, schedule: Q01DX009 (ip), vehicle: saline with Tween-80.
The mark [5] stands for this setting: dose: 25.0 mg/kg/injection, schedule: Q01DX009 (ip), vehicle: Klucel (hydroxypropylcellulose) (HPC).
Setting [6] is: dose: 12.5 mg/kg/injection, schedule: Q01DX009 (ip), vehicle: saline.
Setting [7] is: dose: 25.0 mg/kg/injection, schedule: Q01DX009 (ip), vehicle: saline.
Setting [8] is: dose: 50.0 mg/kg/injection, schedule: Q01DX009 (ip), vehicle: saline.
Setting [9] is: dose: 50.0 mg/kg/injection, schedule: Q01DX009 (ip), vehicle: Klucel (hydroxypropylcellulose) (HPC).
Where [10] appears, read: dose: 100.0 mg/kg/injection, schedule: Q01DX009 (ip), vehicle: Klucel (hydroxypropylcellulose) (HPC).
The mark [11] stands for this setting: dose: 200.0 mg/kg/injection, schedule: Q01DX009 (ip), vehicle: Klucel (hydroxypropylcellulose) (HPC).
[12] abbreviates: dose: 400.0 mg/kg/injection, schedule: Q01DX009 (ip), vehicle: Klucel (hydroxypropylcellulose) (HPC).

Toxic doses and inconclusive results are not listed. Square brackets hold non-standard residues; d marks the D form. Peptide text beside a SMILES is read from it. * marks the point of attachment. ξ: configuration not given here. ξAsp(βξ-Me) = CC(C(=O)O)C(N)C(=O)O; X4 = CC(N*)C1NC(=O)C2CCCCN2C1=O; ξAbu(3ξ-NH2) = CC(N)C(N)C(=O)O; X3 = CCC(C)CCC/C=C/CC(=O)*

Take `Cc1c(N)nc(C(CC(N)=O)NCC(N)C(N)=O)nc1C(=O)NC(C(=O)NC(C)C(O)C(C)C(=O)NC(C(=O)NCCc1nc(-c2nc(C(=O)NCCC[S+](C)C)cs2)cs1)C(C)O)C(OC1OC(CO)C(O)C(O)C1OC1OC(CO)C(O)C(OC(N)=O)C1O)c1cnc[nH]1` (stereo unspecified): the T/C is, setting by setting: (dose: 3.9 mg/kg/injection, schedule: Q01DX009 (ip), vehicle: saline) 107 % of control; (dose: 7.8 mg/kg/injection, schedule: Q01DX009 (ip), vehicle: saline) 105 % of control; (dose: 15.6 mg/kg/injection, schedule: Q01DX009 (ip), vehicle: saline) 99 % of control.

Take `CN(CCO)/N=N/c1nc[nH]c1C(N)=O`: the T/C (dose: 50.0 mg/kg/injection, schedule: Q01DX009 (ip), vehicle: carboxymethylcellulose (CMC)) is 105 % of control.

For the molecule `CCCC(O)C(CC)CO` (stereo unspecified), the T/C is 100 % of control under setting [1]; 121 % of control under setting [2]; 115 % of control (dose: 400.0 mg/kg/injection, schedule: Q01DX009 (ip), vehicle: saline with Tween-80).

As for `Cn1nc(N)c2ncc(-c3ccc(Cl)cc3)nc21`, the T/C reads like this: under setting [3], 91 % of control; under setting [4], 90 % of control.

Turning to `C[C@@H]1CC[C@]2(C)CC[C@]3(C)C(=CC[C@@H]4[C@@]5(C)CC[C@@H](OC(=O)c6ccc(O)cc6)C(C)(C)[C@@H]5C[C@H](O)[C@]43C)[C@@H]2[C@H]1C(=O)O`, the T/C was 96 % of control (dose: 0.02 mg/kg/injection, schedule: Q01DX009 (ip), vehicle: saline with Tween-80); 91 % of control (dose: 0.05 mg/kg/injection, schedule: Q01DX009 (ip), vehicle: saline with Tween-80); 88 % of control (dose: 0.1 mg/kg/injection, schedule: Q01DX009 (ip), vehicle: saline with Tween-80).

Consider `CC[C@@]1(O)C(=O)OCc2c1cc1n(c2=O)Cc2cc3ccccc3nc2-1`, for which the T/C was 151 % of control (dose: 0.39 mg/kg/injection, schedule: Q01DX009 (ip), vehicle: other) and 189 % of control (dose: 0.79 mg/kg/injection, schedule: Q01DX009 (ip), vehicle: other).

For the molecule `CCC(C)CCC/C=C/CC(=O)NC(CC(=O)O)C(=O)NC(C(=O)NC(CC(=O)O)C(=O)NCC(=O)NC(CC(=O)O)C(=O)NCC(=O)NC(C(=O)NC(C(=O)N1CCCC1C(=O)NC(C)C1NC(=O)C2CCCCN2C1=O)C(C)C)C(C)N)C(C)C(=O)O` (stereo not drawn) (X3-D[ξAsp(βξ-Me)]DGDG[ξAbu(3ξ-NH2)]VP-X4; configuration not given here), the T/C reads like this: (dose: 100.0 mg/kg/injection, schedule: Q01DX009 (ip), vehicle: saline + alcohol) 90 % of control; (dose: 200.0 mg/kg/injection, schedule: Q01DX009 (ip), vehicle: saline + alcohol) 93 % of control.

Turning to `C[n+]1c(-c2cccc3ccccc23)c2cc(N)ccc2c2ccccc21`, the T/C is 114 % of control (dose: 1.56 mg/kg/injection, schedule: Q01DX009 (ip), vehicle: water); 106 % of control (dose: 3.12 mg/kg/injection, schedule: Q01DX009 (ip), vehicle: water); 124 % of control (dose: 6.25 mg/kg/injection, schedule: Q01DX009 (ip), vehicle: water); 94 % of control (dose: 12.5 mg/kg/injection, schedule: Q01DX009 (ip), vehicle: water).

As to `O=C(O)C1Cc2c([nH]c3ccccc23)C(CCCCO)N1` (stereo unspecified), the T/C by setting is: (dose: 6.25 mg/kg/injection, schedule: Q01DX009 (ip), vehicle: Klucel (hydroxypropylcellulose) (HPC)) 99 % of control; (dose: 12.5 mg/kg/injection, schedule: Q01DX009 (ip), vehicle: Klucel (hydroxypropylcellulose) (HPC)) 101 % of control; under setting [5], 107 % of control.

On to `CC1=CC(=O)N(NC(N)=O)C1=O`, for which the T/C is, setting by setting: under setting [6], 107 % of control; under setting [7], 96 % of control; under setting [8], 87 % of control.

For the molecule `CN1CCN(c2ccc(Cl)cc2)CC1`, the T/C under setting [5] was 100 % of control and the T/C under setting [9] was 100 % of control.

As to `CC(=O)[C@H]1CC[C@H]2[C@@H]3CCC4=CC(=O)CC[C@]4(C)[C@H]3CC[C@]12C`, the T/C is 104 % of control (dose: 12.5 mg/kg/injection, schedule: Q02DX009 (ip), vehicle: Klucel (hydroxypropylcellulose) (HPC)); 96 % of control (dose: 25.0 mg/kg/injection, schedule: Q02DX009 (ip), vehicle: Klucel (hydroxypropylcellulose) (HPC)); 100 % of control (dose: 50.0 mg/kg/injection, schedule: Q02DX009 (ip), vehicle: Klucel (hydroxypropylcellulose) (HPC)); 91 % of control (dose: 100.0 mg/kg/injection, schedule: Q02DX009 (ip), vehicle: Klucel (hydroxypropylcellulose) (HPC)); 120 % of control (dose: 200.0 mg/kg/injection, schedule: Q02DX009 (ip), vehicle: Klucel (hydroxypropylcellulose) (HPC)); 104 % of control (dose: 400.0 mg/kg/injection, schedule: Q02DX009 (ip), vehicle: Klucel (hydroxypropylcellulose) (HPC)).

Consider `O=C(Nc1ccccc1C(=O)O)c1cc([N+](=O)[O-])cc([N+](=O)[O-])c1`, for which the T/C runs as follows: under setting [3], 98 % of control; under setting [4], 101 % of control; (dose: 50.0 mg/kg/injection, schedule: Q01DX009 (ip), vehicle: saline with Tween-80) 111 % of control; under setting [1], 95 % of control; under setting [2], 87 % of control.

Regarding `CCC1CCCCN1C(=S)N/N=C(\C)c1ccccn1` (stereo unspecified), the T/C was 96 % of control (dose: 6.25 mg/kg/injection, schedule: Q01DX009 (ip), vehicle: saline with Tween-80) and 95 % of control under setting [3].

On to `CC(NC(C)c1ccccc1)c1ccccc1` (stereo unspecified), for which the T/C was 93 % of control under setting [5], 106 % of control under setting [9] and 96 % of control under setting [10].

As to `NC(=O)C=C1c2ccccc2-c2ccccc21`, the T/C runs as follows: under setting [5], 100 % of control; under setting [9], 100 % of control; under setting [10], 94 % of control; under setting [11], 88 % of control; under setting [12], 86 % of control.

On to `CC(C)=CCOc1ccc2ccc(=O)oc2c1`, for which the T/C (dose: 5.0 mg/kg/injection, schedule: Q01DX009 (ip), vehicle: saline with Tween-80) is 108 % of control; the T/C (dose: 10.0 mg/kg/injection, schedule: Q01DX009 (ip), vehicle: saline with Tween-80) is 105 % of control; the T/C (dose: 20.0 mg/kg/injection, schedule: Q01DX009 (ip), vehicle: saline with Tween-80) is 99 % of control.

For `O=C(Nc1ccccc1)OCC(Cl)(Cl)Cl`, the T/C under setting [10] was 114 % of control, the T/C under setting [11] was 108 % of control and the T/C under setting [12] was 102 % of control.

On to `CCN(CC)N=Nc1ccccc1-c1nc(N)c2ccccc2n1`, for which the T/C is 94 % of control (dose: 25.0 mg/kg/injection, schedule: Q04DX003 (ip), vehicle: Klucel (hydroxypropylcellulose) (HPC)); 109 % of control (dose: 50.0 mg/kg/injection, schedule: Q04DX003 (ip), vehicle: Klucel (hydroxypropylcellulose) (HPC)); 96 % of control (dose: 100.0 mg/kg/injection, schedule: Q04DX003 (ip), vehicle: Klucel (hydroxypropylcellulose) (HPC)); 103 % of control (dose: 200.0 mg/kg/injection, schedule: Q04DX003 (ip), vehicle: Klucel (hydroxypropylcellulose) (HPC)).

For `CC(=O)OCCC/C(=C\c1ccc2ccccc2c1)[N+](=O)[O-]`, the T/C reads like this: (dose: 6.25 mg/kg/injection, schedule: Q01DX009 (ip), vehicle: saline) 100 % of control; under setting [6], 95 % of control; under setting [7], 91 % of control; under setting [8], 95 % of control; (dose: 100.0 mg/kg/injection, schedule: Q01DX009 (ip), vehicle: saline) 93 % of control.

Turning to `CO[C@H]1C[C@H](O[C@H]2CC[C@]3(C=O)[C@H]4CC[C@]5(C)[C@@H](C6=CC(=O)OC6)CC[C@]5(O)[C@@H]4CC[C@]3(O)C2)O[C@H](C)[C@H]1O[C@@H]1O[C@H](CO)[C@@H](O)[C@H](O)[C@H]1O`, the T/C is, setting by setting: (dose: 0.25 mg/kg/injection, schedule: Q01DX009 (ip), vehicle: saline) 105 % of control; (dose: 0.25 mg/kg/injection, schedule: Q04DX003 (ip), vehicle: saline) 100 % of control; (dose: 0.5 mg/kg/injection, schedule: Q01DX009 (ip), vehicle: saline) 100 % of control; (dose: 0.5 mg/kg/injection, schedule: Q04DX003 (ip), vehicle: saline) 102 % of control; (dose: 1.0 mg/kg/injection, schedule: Q01DX009 (ip), vehicle: saline) 100 % of control; (dose: 1.0 mg/kg/injection, schedule: Q04DX003 (ip), vehicle: saline) 105 % of control. The T/C (dose: 2.0 mg/kg/injection, schedule: Q01DX009 (ip), vehicle: saline) is 94 % of control.
